The values that follow come from PubChem BioAssay (NCI).

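Tested at 5 concentrations; 48 h exposure; 96-well plates; endpoints linearly interpolated, else capped at highest concentration. GI50 marks 50% less growth. At the TGI there is no net growth.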 Where only a bound is given, the exact number is not on record here.

Some test systems named below: HCT-15 colon; HS 578T breast; K-562 leukemia; MCF7 breast; NCI-H23 lung; SK-MEL-28 melanoma; SN12C renal; SNB-19 CNS; U251 CNS; UO-31 renal.
Common to all, as to experiment: inhibition of tumour cell growth, NCI panel, 48 h

`CC(=O)OC1CC2C(C)(C)CCC[C@]2(C)C2=C1C(O)=C(C(C)C)C(=O)C2=O` (stereo not given in full): the GI50 was 0.351 µM in the assay with HCT-15 colon; 0.532 µM with HS 578T breast; 0.919 µM in the assay with K-562 leukemia; 1.1 µM with MCF7 breast; 0.704 µM with NCI-H23 lung; 0.68 µM with SK-MEL-28 melanoma. Further, the GI50 in the assay on SN12C renal is 0.801 µM; with SNB-19 CNS, 0.646 µM; in the assay with U251 CNS, 0.666 µM; in the assay with UO-31 renal, 0.638 µM. Further, the TGI was 2.04 µM in the assay on HCT-15 colon; above 20.4 µM in the assay with HS 578T breast; above 100 µM with K-562 leukemia; 3.75 µM in the assay on MCF7 breast; 2.98 µM with NCI-H23 lung; 2.16 µM in the assay on SK-MEL-28 melanoma. Also, the TGI is 7.58 µM with SN12C renal, above 46 µM with SNB-19 CNS, 21.7 µM with U251 CNS and 2.06 µM with UO-31 renal.

Turning to `COc1ccc(C2CC(c3ccccc3)=NN2C(=O)c2cc(OC)c(OC)c(OC)c2)cc1O` (stereo not given), the GI50 was 0.352 µM in the assay on HCT-15 colon; 0.316 µM with HS 578T breast; 0.297 µM in the assay with K-562 leukemia; 0.339 µM in the assay with MCF7 breast; 0.743 µM in the assay with NCI-H23 lung; 0.597 µM in the assay with SK-MEL-28 melanoma. The GI50 was 0.766 µM in the assay on SN12C renal, 0.645 µM with SNB-19 CNS, 0.383 µM in the assay on U251 CNS and 0.751 µM in the assay with UO-31 renal. The TGI in the assay on HCT-15 colon was 40.2 µM; in the assay with HS 578T breast, 1.13 µM; in the assay with K-562 leukemia, 27.1 µM; with MCF7 breast, above 53.6 µM; with NCI-H23 lung it was above 65.8 µM; in the assay with SK-MEL-28 melanoma it was above 47.6 µM. Further, the TGI was 34.4 µM in the assay on SN12C renal, above 100 µM in the assay on SNB-19 CNS, 13.8 µM with U251 CNS and above 100 µM in the assay with UO-31 renal.

Turning to `CC(C)(C)[Si](C)(C)OC1[C@@H](O[Si](C)(C)C(C)(C)C)[C@@H](CNC(=O)NC(=O)NC(=O)CCl)O[C@H]1n1cnc2c(NC(=O)Nc3ccccc3)ncnc21` (stereo not given in full), the GI50 is 9.28 µM with HCT-15 colon; 4.52 µM in the assay with HS 578T breast; 2.56 µM in the assay with K-562 leukemia; 3.76 µM in the assay with MCF7 breast; 1.57 µM in the assay on NCI-H23 lung; 8.78 µM in the assay with SK-MEL-28 melanoma. Besides, the GI50 with SN12C renal is 3.69 µM; in the assay on SNB-19 CNS, 15.7 µM; with U251 CNS it was 1.56 µM; in the assay with UO-31 renal it was 0.959 µM. In addition, the TGI is 22.2 µM in the assay with HCT-15 colon; 20.6 µM with HS 578T breast; 7.51 µM with K-562 leukemia; 11.9 µM in the assay with MCF7 breast; 6.59 µM in the assay on NCI-H23 lung; 17.8 µM in the assay on SK-MEL-28 melanoma. Moreover, the TGI in the assay on SN12C renal turned out to be 10.6 µM; in the assay on SNB-19 CNS it was 48.6 µM; with U251 CNS it was 4.22 µM; in the assay with UO-31 renal, 1.89 µM.

With `CCC1(OC(=O)CNC)C(=O)OCc2c1cc1n(c2=O)Cc2cc3ccccc3nc2-1` (stereo not given), the TGI was above 100 µM in the assay on HCT-15 colon; 40.8 µM with HS 578T breast; above 60.1 µM in the assay with K-562 leukemia; 0.198 µM with MCF7 breast; 0.11 µM in the assay with NCI-H23 lung; 2.7 µM in the assay on SK-MEL-28 melanoma. Further, the TGI with SN12C renal stood at 0.849 µM; with SNB-19 CNS, 6.12 µM; in the assay on U251 CNS it was 0.293 µM; with UO-31 renal it was 0.0856 µM.

Turning to `O=C(NCCCl)NCCN1c2nc3ccccc3cc2Sc2cc3ccccc3nc21`, the GI50 in the assay on HCT-15 colon is 2.74 µM; with HS 578T breast, 0.962 µM; in the assay with K-562 leukemia it was 2.14 µM; in the assay with MCF7 breast it was 1.02 µM; in the assay with NCI-H23 lung it was 1.43 µM; in the assay on SK-MEL-28 melanoma, 2.8 µM. Further, the GI50 in the assay with SN12C renal was 3.04 µM; with SNB-19 CNS, 5.58 µM; with U251 CNS, 1.93 µM; in the assay with UO-31 renal it was 2.64 µM. The TGI in the assay on HCT-15 colon was above 40 µM; in the assay on HS 578T breast, 9.57 µM; in the assay with K-562 leukemia, above 25 µM; in the assay on MCF7 breast, 2.59 µM; in the assay on NCI-H23 lung, above 45.6 µM; in the assay with SK-MEL-28 melanoma it was 8.53 µM. Besides, the TGI in the assay with SN12C renal is above 47.6 µM; with SNB-19 CNS, above 46.8 µM; with U251 CNS, 12.3 µM; with UO-31 renal, above 52.1 µM.

Regarding `O=C(/C=C\c1cc(Br)ccc1O)/C=C/c1cc(Br)ccc1O`, the GI50 was 0.384 µM in the assay with HCT-15 colon; 1.25 µM in the assay with HS 578T breast; 0.445 µM in the assay with K-562 leukemia; 0.339 µM with MCF7 breast; 0.87 µM with NCI-H23 lung; 0.555 µM in the assay with SK-MEL-28 melanoma. In addition, the GI50 with SN12C renal is 1.47 µM; with SNB-19 CNS it was 1.03 µM; in the assay with U251 CNS, 0.383 µM; in the assay with UO-31 renal, 0.882 µM. Also, the TGI in the assay with HCT-15 colon was 1.76 µM; in the assay with HS 578T breast it was 39.2 µM; in the assay on K-562 leukemia it was 8.12 µM; in the assay with MCF7 breast it was 2.13 µM; in the assay with NCI-H23 lung, 2.68 µM; in the assay with SK-MEL-28 melanoma it was 1.96 µM. The TGI with SN12C renal was 4.63 µM; with SNB-19 CNS, 2.55 µM; with U251 CNS, 1.55 µM; with UO-31 renal, 2.2 µM.

Consider `[N-]=[N+]=NCCCn1c2c(c3ccc([N+](=O)[O-])cc3c1=O)C(=O)c1cc(I)ccc1-2`, for which the GI50 is 18.5 µM in the assay with HCT-15 colon; 28 µM in the assay with HS 578T breast; 5.15 µM in the assay on K-562 leukemia; 0.586 µM with MCF7 breast; 5.41 µM in the assay with NCI-H23 lung; 41.5 µM in the assay on SK-MEL-28 melanoma. Besides, the GI50 in the assay with SN12C renal is 3.89 µM; with SNB-19 CNS, 4.62 µM; with U251 CNS it was 2.23 µM; in the assay with UO-31 renal it was 3.82 µM. For the same compound, the TGI in the assay with HCT-15 colon is above 100 µM; with HS 578T breast, above 100 µM; in the assay with K-562 leukemia, above 100 µM; with MCF7 breast it was above 100 µM; with NCI-H23 lung it was 55.7 µM; with SK-MEL-28 melanoma it was above 100 µM. The TGI is above 100 µM in the assay on SN12C renal, above 100 µM in the assay on SNB-19 CNS, 30.6 µM in the assay on U251 CNS and 45.6 µM in the assay on UO-31 renal.

On to `COc1ccc(N=N/C(=N\NC(=O)c2cc(Br)ccc2O)c2ccc(N(CCC#N)CCC#N)cc2OC)cc1`, for which the GI50 is 42 µg/mL with HCT-15 colon; 82.5 µg/mL in the assay with HS 578T breast; 74.9 µg/mL with K-562 leukemia; 58.7 µg/mL in the assay with MCF7 breast; 110 µg/mL with NCI-H23 lung; above 150 µg/mL in the assay with SK-MEL-28 melanoma. Further, the GI50 is 77.6 µg/mL in the assay on SN12C renal, above 150 µg/mL in the assay on SNB-19 CNS, above 150 µg/mL with U251 CNS and 59.5 µg/mL in the assay on UO-31 renal. For the same compound, the TGI in the assay with HCT-15 colon, in the assay on HS 578T breast, in the assay with K-562 leukemia, in the assay with MCF7 breast, with NCI-H23 lung and in the assay on SK-MEL-28 melanoma was above 150 µg/mL throughout. For the same compound, the TGI with SN12C renal, in the assay with SNB-19 CNS, in the assay with U251 CNS and with UO-31 renal was above 150 µg/mL each time.

`CN1C(=O)/C(=C2\S/C(=N\c3nnc(-c4ccccc4)o3)NC2=O)c2ccccc21`: the GI50 in the assay with HCT-15 colon is above 100 µM; in the assay with HS 578T breast it was above 100 µM; with K-562 leukemia it was above 100 µM; with MCF7 breast, 91.9 µM; with NCI-H23 lung, above 100 µM; in the assay on SK-MEL-28 melanoma, above 100 µM. In addition, the GI50 in the assay with SN12C renal is above 100 µM; in the assay on SNB-19 CNS, above 100 µM; with U251 CNS it was 66.4 µM; in the assay on UO-31 renal it was above 100 µM. Besides, the TGI in the assay on HCT-15 colon, in the assay on HS 578T breast, in the assay with K-562 leukemia, in the assay on MCF7 breast, in the assay with NCI-H23 lung and in the assay on SK-MEL-28 melanoma was above 100 µM throughout. Besides, the TGI with SN12C renal, in the assay on SNB-19 CNS, with U251 CNS and in the assay on UO-31 renal was above 100 µM throughout.

Regarding `c1ccc(COCC[P+](c2ccccc2)(c2ccccc2)c2ccccc2)cc1`, the GI50 is 14.2 µM with HCT-15 colon; 2.81 µM in the assay with HS 578T breast; 0.383 µM with K-562 leukemia; 0.564 µM in the assay with MCF7 breast; 0.664 µM in the assay with NCI-H23 lung; 1.59 µM with SK-MEL-28 melanoma. Besides, the GI50 is 2.3 µM in the assay with SN12C renal, 1.03 µM in the assay with SNB-19 CNS, 0.869 µM in the assay with U251 CNS and 4.82 µM with UO-31 renal. In addition, the TGI with HCT-15 colon is above 100 µM; with HS 578T breast, 17.9 µM; in the assay with K-562 leukemia it was 16 µM; in the assay on MCF7 breast it was 7.27 µM; in the assay on NCI-H23 lung, 6.75 µM; with SK-MEL-28 melanoma, 12.2 µM. The TGI was determined as 11.3 µM in the assay with SN12C renal, 10.7 µM in the assay with SNB-19 CNS, 11.7 µM in the assay on U251 CNS and 28.4 µM with UO-31 renal.

As to `CCCCOC(=O)/C=C\C(=O)NC(N)=O`, the GI50 with HCT-15 colon is 15.6 µM; with HS 578T breast, 23.5 µM; with K-562 leukemia, 31.3 µM; in the assay on MCF7 breast it was 13 µM; in the assay on NCI-H23 lung it was 25.1 µM; with SK-MEL-28 melanoma, 19.1 µM. Further, the GI50 in the assay with SN12C renal is 41.5 µM; with SNB-19 CNS, 41.2 µM; in the assay with U251 CNS, 26.2 µM; with UO-31 renal it was 13.4 µM. For the same compound, the TGI was 38.3 µM with HCT-15 colon; above 100 µM with HS 578T breast; above 100 µM with K-562 leukemia; 76.7 µM with MCF7 breast; 72.5 µM in the assay with NCI-H23 lung; 42.5 µM in the assay with SK-MEL-28 melanoma. In addition, the TGI with SN12C renal is above 100 µM; with SNB-19 CNS it was above 100 µM; with U251 CNS it was 89.3 µM; with UO-31 renal it was 31 µM.
